Key:
[1] = target: T1, VEGFR2 kinase (Homo sapiens, UniProt P35968); assay: In Vitro VEGFR2 Kinase Assay; assay type: biochemical; details: FP; CSKtide substrate, 60 minutes at room temperature
T1 construct: purchased InVitrogen
Protocol: In Vitro VEGFR2 Kinase Assay
50 ng/well VEGFR2 kinase (from InVitrogen) was mixed in buffer (14.5 μL/well). To this were added, 0.5 μL of the compound of this invention at a concentration of 2.5% in DMSO. After incubatiuon for 5 minutes at room temperature, 5 μL of substrate (CSKtide, 400 nM) and 8 μL ATP were added. The mixture was incubated for 60 minutes at room temperature and 60 uL of binding reagent (beads) was added. After incubation overnight at room temperature, the plate was read with a LJL plate reader.

[2] = In Vitro Cytotoxicity Assay HCT116 (CellTiter-Glo); assay type: cell-based; details: human, HCT116 colon carcinoma cells, cultured three days
Protocol: (§1) The cell lines HL60 (human promyelocytic leukemia) and HCT116 (human colon carcinoma) were obtained from the American Type Culture Collection, Manassas, Va., U.S.A. All products were used in accordance with manufacturer's directions. The cytotoxicity assays were conducted in triplicate, in each case with solvent control.
(§2) Log-phase cells were trypsinized, collected by centrifugation, and resuspended in a small volume of fresh medium, and the density of viable cells was determined following Trypan Blue staining Cells were diluted in fresh media, the test compounds (concentrations between 0.1 μM and 200 μM, dissolved in DMSO, 50 μL) added immediately after dilution to achieve a final DMSO concentration of 0.5%, then the suspensions added at 150 μL/well to 96-well plates, and incubated overnight to allow attachment in the case of adherent cells. The cells were cultured for three days (about three doubling times). The cells were then collected by centrifugation, and 100 μL of the culture supernatant was replaced by the CellTiter-Glo reagent. After incubation for 15 minutes at room temperature, the plate was read with a luminometer. […] The table gives cytotoxicity IC50s in μm.

[3] = In Vitro Cytotoxicity Assay HL60 (CellTiter-Glo); assay type: cell-based; details: human, HL60 promyelocytic leukemia cells; HL 60 cells, cultured three days
Protocol: as §1, §2

T1 sequence (P35968 20-1356): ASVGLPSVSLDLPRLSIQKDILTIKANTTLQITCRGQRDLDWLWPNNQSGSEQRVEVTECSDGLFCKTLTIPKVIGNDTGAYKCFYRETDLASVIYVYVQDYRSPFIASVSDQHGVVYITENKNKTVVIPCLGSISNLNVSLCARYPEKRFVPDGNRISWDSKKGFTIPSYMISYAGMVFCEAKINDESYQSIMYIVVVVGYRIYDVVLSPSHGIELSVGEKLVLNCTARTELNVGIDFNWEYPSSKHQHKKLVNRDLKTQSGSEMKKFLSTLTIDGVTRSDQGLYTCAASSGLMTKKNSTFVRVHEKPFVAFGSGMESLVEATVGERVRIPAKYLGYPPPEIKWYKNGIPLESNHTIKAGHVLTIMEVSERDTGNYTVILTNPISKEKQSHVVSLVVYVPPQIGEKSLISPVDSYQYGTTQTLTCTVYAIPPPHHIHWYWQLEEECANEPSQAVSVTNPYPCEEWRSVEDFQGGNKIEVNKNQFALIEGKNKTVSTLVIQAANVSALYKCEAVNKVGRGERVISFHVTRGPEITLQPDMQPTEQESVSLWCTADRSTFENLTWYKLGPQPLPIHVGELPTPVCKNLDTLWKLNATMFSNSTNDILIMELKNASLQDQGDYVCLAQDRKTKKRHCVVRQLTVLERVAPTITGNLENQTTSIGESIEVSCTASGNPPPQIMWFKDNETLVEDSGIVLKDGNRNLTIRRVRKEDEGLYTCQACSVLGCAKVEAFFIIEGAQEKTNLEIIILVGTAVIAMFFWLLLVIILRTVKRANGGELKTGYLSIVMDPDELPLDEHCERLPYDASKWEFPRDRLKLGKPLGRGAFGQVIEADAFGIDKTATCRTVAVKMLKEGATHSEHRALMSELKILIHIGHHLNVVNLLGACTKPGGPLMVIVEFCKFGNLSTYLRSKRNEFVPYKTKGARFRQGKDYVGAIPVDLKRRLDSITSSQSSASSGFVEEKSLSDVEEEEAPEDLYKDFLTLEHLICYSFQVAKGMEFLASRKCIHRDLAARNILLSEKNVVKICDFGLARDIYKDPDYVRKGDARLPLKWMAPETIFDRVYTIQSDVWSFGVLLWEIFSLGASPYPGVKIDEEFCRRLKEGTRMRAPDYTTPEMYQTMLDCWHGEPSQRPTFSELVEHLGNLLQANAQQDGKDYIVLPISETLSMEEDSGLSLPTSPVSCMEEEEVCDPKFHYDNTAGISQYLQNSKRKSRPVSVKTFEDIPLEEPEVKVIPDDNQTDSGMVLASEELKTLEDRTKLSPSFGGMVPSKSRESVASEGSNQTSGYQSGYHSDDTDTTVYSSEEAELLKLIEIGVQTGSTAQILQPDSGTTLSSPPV

Row | SMILES | IC50 [1] | IC50 at 3 days [2] | IC50 at 3 days [3]
1 | CCOC(=O)c1cccc(NC(=O)Nc2cccc(-c3csc(-c4cncnc4N)n3)c2)c1 [Compound 42] | 100 nM | 4000 nM | –
2 | CCOC(=O)CNC(=O)Nc1cccc(-c2csc(-c3cncnc3N)n2)c1 [Compound 59] | 300 nM | 30000 nM | –
3 | COc1ccc(NC(=O)Nc2cccc(-c3csc(-c4cncnc4N)n3)c2)cc1 [Compound 14] | 30 nM | 20000 nM | 300 nM
4 | CC(C)(O)c1cccc(NC(=O)Nc2cccc(-c3csc(-c4cncnc4N)n3)c2)c1 [Compound 43] | 20 nM | 5000 nM | –
5 | CN(C)Cc1cccc(C(=O)Nc2cccc(-c3csc(-c4cncnc4N)n3)c2)c1 [Compound 55] | 400 nM | 2000 nM | 400 nM
6 | Nc1ncncc1-c1nc(-c2cccc(NC(=O)c3ccncc3)c2)cs1 [Compound 24] | – | 30000 nM | –
7 | CCc1ccc(NC(=O)Nc2cccc(-c3csc(-c4cncnc4N)n3)c2)cc1 [Compound 28] | 70 nM | 8000 nM | 1000 nM
8 | CC(=O)Nc1cccc(-c2csc(-c3cncnc3N)n2)c1 [Compound 61] | 300 nM | 40000 nM | –
9 | Nc1ncncc1-c1nc(-c2cccc(NC(=O)Nc3ccc(Cl)cc3)c2)cs1 [Compound 16] | 4 nM | 10000 nM | 1000 nM
10 | Nc1ncncc1-c1nc(-c2cccc(NC(=O)c3cccc(Cl)c3)c2)cs1 [Compound 6, N-(3-(2-(4-aminopyrimidin-5-yl)thiazol-4-yl)phenyl)-3-chlorobenzamide] | 20 nM | > 50000 nM | 3000 nM
11 | Nc1ncncc1-c1nc(-c2cccc(NC(=O)Cc3ccccc3)c2)cs1 [Compound 45] | 40 nM | 30000 nM | –
12 | Nc1ncncc1-c1nc(-c2cccc(NC(=O)NC3CCCC3)c2)cs1 [Compound 63] | 70 nM | 7000 nM | –
13 | Nc1ncncc1-c1nc(-c2cccc(NC(=O)Nc3cccc(Cl)c3)c2)cs1 [Compound 31] | 60 nM | 1000 nM | –
14 | Nc1ncncc1-c1nc(-c2cccc(NC(=O)C3CCCCC3)c2)cs1 [Compound 62] | 20 nM | > 50000 nM | –
15 | Nc1ncncc1-c1nc(-c2cccc(NC(=O)Nc3ccc(Cl)c(C(F)(F)F)c3)c2)cs1 [Compound 22] | 20 nM | 1000 nM | 1000 nM
16 | Nc1ncncc1-c1nc(-c2cccc(NC(=O)Nc3ccccc3)c2)cs1 [Compound 4] | 10 nM | 6000 nM | 200 nM
17 | Nc1ncncc1-c1nc(-c2cccc(NC(=O)Nc3ccccc3Cl)c2)cs1 [Compound 18] | 30 nM | 30000 nM | 500 nM
18 | Nc1ncncc1-c1nc(-c2cccc(NC(=O)c3ccc(F)cc3)c2)cs1 [Compound 5] | 30 nM | 30000 nM | –
19 | Cc1cccc(C(=O)Nc2cccc(-c3csc(-c4cncnc4N)n3)c2)c1 [Compound 41] | 10 nM | 20000 nM | –
20 | CCc1cccc(C)c1NC(=O)Nc1cccc(-c2csc(-c3cncnc3N)n2)c1 [Compound 38] | 200 nM | > 50000 nM | –
21 | Nc1ncncc1-c1nc(-c2cccc(NC(=O)c3ccc(-c4ccccc4)cc3)c2)cs1 [Compound 15] | 400 nM | 3000 nM | 1000 nM
22 | Nc1ncncc1-c1nc(-c2cccc(NC(=O)Cc3cccc(C(F)(F)F)c3)c2)cs1 [Compound 40] | 100 nM | 7000 nM | –
23 | Nc1ncncc1-c1nc(-c2cccc(NC(=O)c3ccc(F)c(F)c3)c2)cs1 [Compound 9] | 300 nM | 50000 nM | 20000 nM
24 | Nc1ncncc1-c1nc(-c2cccc(NC(=O)NC3CCCCC3)c2)cs1 [Compound 65] | 40 nM | 8000 nM | 1000 nM
25 | COc1ccccc1NC(=O)Nc1cccc(-c2csc(-c3cncnc3N)n2)c1 [Compound 26] | 40 nM | 7000 nM | 400 nM
26 | Nc1ncncc1-c1nc(-c2cccc(NC(=O)N3CCC(O)CC3)c2)cs1 [Compound 69] | 400 nM | 4000 nM | –
27 | Nc1ncncc1-c1nc(-c2cccc(NC(=O)Nc3cccc(C(F)(F)F)c3)c2)cs1 [Compound 39] | 20 nM | 2000 nM | 1000 nM

Row | SMILES | IC50 [1] | IC50 at 3 days [2] | IC50 at 3 days [3]
28 | Nc1ncncc1-c1nc(-c2cccc(NC(=O)c3ccc(Cl)cc3)c2)cs1 [Compound 8] | 70 nM | 20000 nM | 300 nM
29 | Nc1ncncc1-c1nc(-c2cccc(NC(=O)C3CCCC3)c2)cs1 [Compound 64] | 300 nM | > 50000 nM | –
30 | Nc1ncncc1-c1nc(-c2cccc(NC(=O)NCc3ccccc3)c2)cs1 [Compound 58] | 60 nM | 4000 nM | 400 nM
31 | Nc1ncncc1-c1nc(-c2cccc(NC(=O)c3ccccn3)c2)cs1 [Compound 21] | 200 nM | > 50000 nM | 4000 nM
32 | Cc1ccc(NC(=O)Nc2cccc(-c3csc(-c4cncnc4N)n3)c2)cc1Cl [Compound 11] | 10 nM | 3000 nM | –
33 | Nc1ncncc1-c1nc(-c2cccc(NC(=O)c3cccc(CNCCO)c3)c2)cs1 [Compound 56] | 100 nM | 3000 nM | 2000 nM
34 | COc1ccccc1C(=O)Nc1cccc(-c2csc(-c3cncnc3N)n2)c1 [Compound 25] | 300 nM | 10000 nM | –
35 | Nc1ncncc1-c1nc(-c2cccc(NC(=O)CN3CCCCC3)c2)cs1 [Compound 67] | 300 nM | 10000 nM | –
36 | Nc1ncncc1-c1nc(-c2cccc(NC(=O)N3CCCCC3)c2)cs1 [Compound 68] | 200 nM | 20000 nM | –
37 | CCNC(=O)Nc1cccc(-c2csc(-c3cncnc3N)n2)c1 [Compound 60] | 80 nM | > 50000 nM | –
38 | Nc1ncncc1-c1nc(-c2cccc(NC(=O)Nc3ccc(F)c(C(F)(F)F)c3)c2)cs1 [Compound 10] | 20 nM | 2000 nM | 500 nM
39 | Cc1nc(-c2cccc(NC(=O)Nc3cccc(-c4csc(-c5cncnc5N)n4)c3)c2)no1 [Compound 47] | 90 nM | > 50000 nM | –
40 | N#Cc1ccc(NC(=O)Nc2cccc(-c3csc(-c4cncnc4N)n3)c2)cc1 [Compound 29] | 60 nM | > 50000 nM | –
41 | Nc1ncncc1-c1nc(-c2cccc(NC(=O)Nc3ccccc3C(F)(F)F)c2)cs1 [Compound 20] | 50 nM | 50000 nM | 700 nM
42 | Cc1ccccc1NC(=O)Nc1cccc(-c2csc(-c3cncnc3N)n2)c1 [Compound 19] | 70 nM | > 50000 nM | 900 nM
43 | Nc1ncncc1-c1nc(-c2cccc(NC(=O)Nc3ccccc3[N+](=O)[O-])c2)cs1 [Compound 33] | 50 nM | > 50000 nM | –
44 | Cc1ccc(NC(=O)Nc2cccc(-c3csc(-c4cncnc4N)n3)c2)cc1C [Compound 27] | 40 nM | 2000 nM | 4000 nM
45 | Nc1ncncc1-c1nc(-c2cccc(NC(=O)c3ccc([N+](=O)[O-])cc3)c2)cs1 [Compound 13] | 200 nM | > 50000 nM | > 50000 nM
46 | Nc1ncncc1-c1nc(-c2cccc(NC(=O)Nc3cccc(CO)c3)c2)cs1 [Compound 44] | 30 nM | 30000 nM | –
47 | Nc1ncncc1-c1nc(-c2cccc(NC(=O)c3cccc(CN4CCOCC4)c3)c2)cs1 [Compound 52] | 500 nM | 4000 nM | 1000 nM
48 | Cc1cccc(NC(=O)c2cccc(-c3csc(-c4cncnc4N)n3)c2)c1 [Compound 49] | 400 nM | 10000 nM | –
49 | Nc1ncncc1-c1nc(-c2cccc(NC(=O)Nc3ccc4c(c3)OCO4)c2)cs1 [Compound 72] | 60 nM | 2000 nM | 300 nM
50 | Nc1ncncc1-c1nc(-c2cccc(NC(=O)c3cccnc3)c2)cs1 [Compound 23] | 500 nM | 10000 nM | –
51 | Nc1ncncc1-c1nc(-c2cccc(NC(=O)Nc3cccc(F)c3)c2)cs1 [Compound 12] | 100 nM | 40000 nM | 100 nM
52 | Nc1ncncc1-c1nc(-c2ccc(NC(=O)Nc3cccc(C(F)(F)F)c3)cc2)cs1 [Compound 1] | – | 4000 nM | 900 nM
53 | N#Cc1cccc(NC(=O)Nc2cccc(-c3csc(-c4cncnc4N)n3)c2)c1 [Compound 30] | 400 nM | > 50000 nM | –
54 | CCCCOC(=O)c1ccccc1NC(=O)Nc1cccc(-c2csc(-c3cncnc3N)n2)c1 [Compound 36] | 300 nM | 10000 nM | –

Source: patent US20130184280A1, “SUBSTITUTED THIAZOLES AS VEGFR2 KINASE INHIBITORS” (TELIK, INC., priority 2011, published 2013)
